Measured values: paper PMC8997832, “Genetic Engineering Production of Ethyl Carbamate Hydrolase and Its Application in Degrading Ethyl Carbamate in Chinese Liquor” (Foods, 2022)

Tested on: T1, ethyl carbamate hydrolase (ECH; AcECH)
T1 construct: codon-optimized synthetic gene in pET24b (NdeI/XhoI), C-terminal His-tag kept, E. coli BL21(DE3), Ni-NTA purified; about 33 kDa by SDS-PAGE
Test: Berthelot indophenol ammonia assay, […] nm; Lineweaver-Burk
Type: biochemical, Acinetobacter calcoaceticus
Conditions: free enzyme; 5-30 mM EC; standard assay 70 °C, pH 7.0 (not restated for kinetics)

Work on `CCOC(N)=O` [EC, ethyl carbamate] yielded a Km of 9.38 mM.
